Where a name gives a salt, the structure may show the parent alone.
Columns and labels:
[1] = Aqueous solubility of dicamba acid and dicamba salts; conditions: for solubility 20° C. a.e. / solubility 20° C. a.i. / Comments (crystal formation) / solubility 0° C. a.e. / solubility 0° C. a.i.: Table 10a; for solubility 20° C. a.e. / solubility 20° C. a.i. / solubility 0° C. a.e. / solubility 0° C. a.i.: dicamba salt; for solubility 20° C. a.e. / solubility 20° C. a.i.: equilibrated 5 to 7 days at 20° C.; for solubility 20° C. a.e.: 0.45 micron filter, HPLC; for solubility 20° C. a.e. / solubility 0° C. a.e.: acid equivalent; for solubility 20° C. a.i. / solubility 0° C. a.i.: active ingredient; for Comments (crystal formation): dicamba salt solutions; for solubility 0° C. a.e. / solubility 0° C. a.i.: equilibrated 5 to 7 days at 0° C.; for aqueous solubility wt % a.i. @20° C.: dicamba salts
Description: The solution was then passed through a 0.45 micron filter and assayed by HPLC for soluble dicamba.

[2] = Distillation volatility: dicamba in distillate by HPLC/MS; type: physicochemical; conditions: for ppm Dicamba in distillate: Table 4h summary, 5% a.e. salt solution
Method: The pH was measured on a standard Orion Model 320 pH meter of each neat solution.
Simple distillation using a short path still was used to collect the water distillate containing the dicamba in the vapor phase of the salt solutions. A 50 mL distillation flask was used. The distillation receiver was a “cow” type with four 2 mL graduated sections. The solutions were heated at the 30% setting of the GlassCol heating unit and the boiling point of each distillation was noted. The first 2 ml of distillate was collected, and the receiver rotated to avoid collection of any further distillate in that section as the distillation flask cooled. The 2 mL sample was quantitatively transferred by pipette to HPLC vials for later analysis. Between each distillation the distillation apparatus was washed with 10 volumes of tap water, 10 volumes of distilled water, rinsed with acetone, and dried in a 60° C. oven. Each distillation was run in triplicate.
The distillate was collected and analyzed for dicamba concentration using HPLC/Mass Spectroscopy (MS). The HPLC column was an Agilent Zorbax Eclipse XDB-C8, 4.6×150 mm, 5u, PN 993967-90. Mobile phase A was 0.1% formic acid in D.I. water. Mobile phase B was 0.1% formic acid in acetonitrile. A flow rate of 1.2 mL/min was used and an injection volume of 5, 10, 15 or 25 ul was used depending on the dicamba level in the sample. The following gradient was used: […]
The MS parameters were as follows: Type SIR; ES-ion mode; 0.05 second inter channel delay; 0.05 second interscan time; 0.5 span (Da); 10 minutes elapsed time; and 6-6000 ppb calibration range. […] Channel 2 mass was 177 (Da); Dwell was 0.25(s); Cone(V)=tune and; 0.05(s) delay.

[3] = Tank mix compatibility of dicamba salts with potassium glyphosate; type: physicochemical
Description: The weight of the dicamba solution that caused precipitation was noted. The results are reported in Table 12a below where “salt” refers to the dicamba salt and “g to crystals” refers to the total amount of grams of dicamba a.e. that were required to induce crystallization or precipitation of crystals.

[4] = type: physicochemical; conditions: 5 mL sample, air pulled through tube over PUF approximately 1 day; wt % a.e.: salts 35.8, BANVEL 40, acid 99
Method: In a further set of experiments, measurements of dicamba concentration in the gas phase (air) above 38.5 wt % a.e. solutions of various dicamba salts was measured. 5 mL of each sample of dicamba was placed into a 50 mL plastic centrifuge tube with four holes approximately ⅛ in diameter drilled into the tube at the 10 mL line. A 22 mm×30 mm PUF (SKC ct. #226-124) was placed into a glass tube of app. 20 mm diameter with parafilm wrapped around the outside to obtain a snug fit into the top of the centrifuge tube. A hose was connected to the other end of the glass tube leading to a vacuum line. The air flow was regulated to app. 2 L/min using a flow controller (about 0.4 L air/min-mL sample). Air was pulled through the tube at […] for approximately 1 day. Note that the air conditions of flow rate, temperature, pressure and composition (e.g., relative humidity) are not narrowly critical as long as the various samples are analyzed under similar conditions. For instance, air at from about 5° C. to about 40° C., from about 0.5 to about 1.5 bar pressure, from about 0% to about 95% relative humidity, and at a flow rate of from about 0.1 to 10 L/min-mL sample could be suitably used for volatility analysis. The PUF was removed from the glass tube, extracted with 20 mL methanol and the resulting solution analyzed for dicamba concentration by LC-MS. The results are shown in Table 4i below where “wt % a.e.” refers to the dicamba concentration, “μg/mL” refers to the dicamba concentration in the distillate, “μg dicamba” refers to the total dicamba extracted from the PUF by 20 mL methanol, and “ng/L air” and “moles/L air” refer to the dicamba concentration in the gas phase above the solution.

NCCO [MEA]
solubility 20° C. a.e. [1]: >71.9 wt % | solubility 20° C. a.i. [1]: >91.8 wt % | ppm Dicamba in distillate ([2]; pH 6.87): 0.5 ppm | ppm Dicamba in distillate ([2]; pH 8.03): 0.3 ppm | Comment ([3]; dicamba salt solution added to […] Roundup POWERMAX solution): Clear solution, no precipitate | g to crystals ([3]; grams dicamba a.e. (35.8% a.e. salt solution) added to […] Roundup POWERMAX solution to induce crystallization or precipitation): >34.2 g

COc1c(Cl)ccc(Cl)c1C(=O)O [Dicamba acid, 3,6-dichloro-2-methoxybenzoic acid]
aqueous solubility Approximate g a.e./L @20° C. ([1]; listed as acid): 4.5 g a.e./L | aqueous solubility wt % a.e. @20° C. ([1]; listed as acid): 0.4 wt % a.e. | aqueous solubility wt % a.e. @20° C. ([1]; Table 10b, second experiment, dicamba acid and salts, listed as acid): 0.4 wt % a.e. | dicamba [4]: 15.3 µg/mL | dicamba concentration in gas phase, moles/L air [4]: 1.92 × 10^−10 moles/L air | dicamba concentration in gas phase, ng/L air [4]: 42.4 ng/L air | μg dicamba [4]: 305.4 µg

NCCCCCCN [HMDA]
Comments (crystal formation) [1]: Pasty solid | solubility 0° C. a.e. [1]: 11.2 wt % | solubility 0° C. a.i. [1]: 14.1 wt % | solubility 20° C. a.e. [1]: 14.1 wt % | solubility 20° C. a.i. [1]: 17.8 wt %

COc1c(Cl)ccc(Cl)c1C(=O)O [Dicamba potassium salt]
aqueous solubility Approximate g a.e./L @20° C. ([1]; listed as potassium dicamba): 720 g a.e./L | aqueous solubility wt % a.e. @20° C. ([1]; listed as potassium dicamba): 54.6 wt % a.e. | Comments (crystal formation) ([1]; listed as K): Crystals form on | solubility 0° C. a.e. ([1]; listed as K): 52.7 wt % | solubility 0° C. a.i. ([1]; listed as K): 61.8 wt % | solubility 20° C. a.e. ([1]; listed as K): 54.6 wt % | solubility 20° C. a.i. ([1]; listed as K): 64 wt % | aqueous solubility wt % a.e. @20° C. ([1]; Table 10b, second experiment, dicamba acid and salts, listed as potassium salt): 54.6 wt % a.e. | aqueous solubility wt % a.i. @20° C. ([1]; Table 10b, second experiment, listed as potassium salt): 64 wt % a.i. | ppm Dicamba in distillate ([2]; pH 7.06): 0.6 ppm

CNC [DMA]
Mean Dicamba in Distillate ([2]; 1% a.e. dicamba, solution pH 3.25): 4.50 ppm | Mean Dicamba in Distillate ([2]; 1% a.e. dicamba, solution pH 4.36): 0.57 ppm | Mean Dicamba in Distillate ([2]; 1% a.e. dicamba, solution pH 6.11): 0.30 ppm | Mean Dicamba in Distillate ([2]; 1% a.e. dicamba, solution pH 8.53): 0.73 ppm | Mean Dicamba in Distillate ([2]; 1% a.e. dicamba, solution pH 10.12): 1.32 ppm | Mean Dicamba in Distillate ([2]; 2% a.e. dicamba, solution pH 3.20): 9.19 ppm | Mean Dicamba in Distillate ([2]; 2% a.e. dicamba, solution pH 4.25): 1.08 ppm | Mean Dicamba in Distillate ([2]; 2% a.e. dicamba, solution pH 5.97): 0.83 ppm | Mean Dicamba in Distillate ([2]; 2% a.e. dicamba, solution pH 8.66): 1.98 ppm | Mean Dicamba in Distillate ([2]; 2% a.e. dicamba, solution pH 10.24): 4.88 ppm | Mean Dicamba in Distillate ([2]; 5% a.e. dicamba, solution pH 3.18): 20.10 ppm | Mean Dicamba in Distillate ([2]; 5% a.e. dicamba, solution pH 4.22): 2.67 ppm | Mean Dicamba in Distillate ([2]; 5% a.e. dicamba, solution pH 5.58): 2.06 ppm | Mean Dicamba in Distillate ([2]; 5% a.e. dicamba, solution pH 8.69): 8.43 ppm | Mean Dicamba in Distillate ([2]; 5% a.e. dicamba, solution pH 10.17): 12.34 ppm | ppm Dicamba in distillate ([2]; pH 5.58): 2.1 ppm | ppm Dicamba in distillate ([2]; pH 8.69): 8.4 ppm

CC(C)N [IPA]
Mean Dicamba in Distillate ([2]; 1% a.e. dicamba, solution pH 3.41): 1.42 ppm | Mean Dicamba in Distillate ([2]; 1% a.e. dicamba, solution pH 4.40): 0.42 ppm | Mean Dicamba in Distillate ([2]; 1% a.e. dicamba, solution pH 5.13): 0.37 ppm | Mean Dicamba in Distillate ([2]; 1% a.e. dicamba, solution pH 8.10): 0.72 ppm | Mean Dicamba in Distillate ([2]; 1% a.e. dicamba, solution pH 9.13): 1.22 ppm | Mean Dicamba in Distillate ([2]; 2% a.e. dicamba, solution pH 3.37): 3.65 ppm | Mean Dicamba in Distillate ([2]; 2% a.e. dicamba, solution pH 4.36): 1.42 ppm | Mean Dicamba in Distillate ([2]; 2% a.e. dicamba, solution pH 5.10): 0.94 ppm | Mean Dicamba in Distillate ([2]; 2% a.e. dicamba, solution pH 8.13): 0.75 ppm | Mean Dicamba in Distillate ([2]; 2% a.e. dicamba, solution pH 9.20): 3.43 ppm | Mean Dicamba in Distillate ([2]; 5% a.e. dicamba, solution pH 3.44): 5.85 ppm | Mean Dicamba in Distillate ([2]; 5% a.e. dicamba, solution pH 4.33): 3.14 ppm | Mean Dicamba in Distillate ([2]; 5% a.e. dicamba, solution pH 4.94): 3.77 ppm | Mean Dicamba in Distillate ([2]; 5% a.e. dicamba, solution pH 8.24): 2.47 ppm | Mean Dicamba in Distillate ([2]; 5% a.e. dicamba, solution pH 9.28): 12.57 ppm | ppm Dicamba in distillate ([2]; pH 8.24): 2.5 ppm

COc1c(Cl)ccc(Cl)c1C(=O)O.NCCOCCO [Dicamba DGA salt, reference compound]
aqueous solubility Approximate g a.e./L @20° C. [1]: 700 g a.e./L | aqueous solubility wt % a.e. @20° C. [1]: 56.5 wt % a.e. | aqueous solubility wt % a.e. @20° C. ([1]; Table 10b, second experiment, dicamba acid and salts): 56.5 wt % a.e. | aqueous solubility wt % a.i. @20° C. ([1]; Table 10b, second experiment): 83.4 wt % a.i. | crystal formation from concentrated salt solution ([1]; solubility experiment, Example 10): several weeks
